In patent publication US20240300948A1, “Heterocyclic Compounds As Kinase Inhibitors” (Incyte Corporation, priority 2023, published 2024):

What was measured:
[1] = target: T1, pseudo-kinase domain (JH2, amino-acids 536-812 with 3 surface mutations W659A, W777A, F794H) of human Wild Type JAK2 (Homo sapiens, UniProt O60674, F794H/W659A/W777A); assay: JAK2 LanthaScreen JH2-WT binding assay; conditions: 50 nM tracer, 1 hour at 25° C., read-out: JH2 BIND WT IC50
T1 construct: pseudo-kinase domain (JH2, amino-acids 536-812 with 3 surface mutations W659A, W777A, F794H); His (C); Avi (biotinylated) (C); purchased BPS Bioscience 79463; host or cells: baculovirus expression system
T1 sequence (O60674 536-812 W659A/W777A/F794H): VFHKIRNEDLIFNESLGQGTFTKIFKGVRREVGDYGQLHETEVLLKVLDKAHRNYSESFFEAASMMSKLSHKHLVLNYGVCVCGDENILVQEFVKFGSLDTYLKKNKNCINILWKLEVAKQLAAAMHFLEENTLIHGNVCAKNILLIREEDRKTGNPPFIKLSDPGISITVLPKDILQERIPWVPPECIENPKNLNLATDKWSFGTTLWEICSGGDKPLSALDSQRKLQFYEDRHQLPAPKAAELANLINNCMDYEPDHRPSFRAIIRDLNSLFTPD
Procedure, shortened: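 TR-FRET tracer displacement: 0.145 nM biotinylated JH2 protein, 50 nM fluorescent tracer, 0.25 nM streptavidin-Tb, compound dilution series; 50 mM Tris pH 7.5, 10 mM MgCl2, 5 mM DTT; 1 h, 25° C. Non-specific binding with 2 mM ATP. IC50 by 4-parameter fit.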

[2] = target: T2, catalytic domain (JH1, amino acids 826-1132) of human JAK2 (Homo sapiens, UniProt O60674); assay: JAK2 LanthaScreen JH1 binding assay; conditions: 50 nM tracer, 2 hours at 25° C., read-out: JH1 BIND IC50
T2 construct: catalytic domain (JH1, amino acids 826-1132) of human JAK2; FLAG (N); purchased Carna Biosciences 08-445-20N; host or cells: baculovirus expression system
T2 sequence (O60674 826-1132): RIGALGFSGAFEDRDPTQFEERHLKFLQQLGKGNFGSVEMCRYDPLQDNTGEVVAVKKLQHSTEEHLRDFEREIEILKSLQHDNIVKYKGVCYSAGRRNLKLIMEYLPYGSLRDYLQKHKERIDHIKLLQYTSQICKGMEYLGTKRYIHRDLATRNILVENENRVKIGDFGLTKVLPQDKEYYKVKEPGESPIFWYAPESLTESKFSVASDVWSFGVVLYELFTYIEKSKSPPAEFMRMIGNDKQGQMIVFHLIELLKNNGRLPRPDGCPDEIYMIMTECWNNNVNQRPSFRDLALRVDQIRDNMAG
Procedure, shortened: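 Binding of compounds to biotinylated, FLAG-tagged human JAK2 JH1 (aa 826-1132; 1.5 nM) was measured by LanthaScreen TR-FRET with 50 nM fluorescent tracer and 0.5 nM streptavidin-Tb, in pH 7.5 Tris buffer. Non-specific binding was defined with 2 mM ATP. After 2 h at 25 °C, IC50 was fitted from four-parameter dose-response curves.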

[3] = target: T3, pseudo-kinase domain (JH2, amino-acids 536-812 with 3 surface mutations W659A, W777A, F794H) of human V617F mutant JAK2 (Homo sapiens, UniProt O60674, F794H/V617F/W659A/W777A); assay: JAK2 LanthaScreen JH2-V617F binding assay; conditions: 50 nM tracer, 1 hour at 25° C., read-out: JH2 BIND V617F IC50
T3 construct: pseudo-kinase domain (JH2, amino-acids 536-812 with 3 surface mutations W659A, W777A, F794H); His (C); Avi (biotinylated) (C); purchased BPS Bioscience 79498; host or cells: baculovirus expression system
T3 sequence (O60674 536-812 V617F/W659A/W777A/F794H): as the sequence (O60674 536-812 W659A/W777A/F794H) above, with V82F counted along it
Procedure, shortened: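 Competition of compounds with a fluorescent tracer (50 nM) for the biotinylated domain (0.26 nM), detected via streptavidin-Tb (0.25 nM) after 1 h at 25° C in pH 7.5 Tris buffer containing glycerol, BSA and Brij-35. ATP at 2 mM gave background. IC50 by four-parameter fit.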

SMILES | IC50 [1] [nM] | IC50 [2] [nM] | IC50 [3] [nM]
COC(=O)N1CCC(N2C(=O)NCc3cnc4[nH]c(-c5cnn(C)c5)c(-c5ccc6c(cnn6C(C)C)c5)c4c32)CC1 [Example 14, Methyl 4-(9-(1-isopropyl-1H-indazol-5-yl)-8-(1-methyl-1H-pyrazol-4-yl)-2-oxo-2,3,4,7-tetrahydro-1H-pyrrolo[3′,2′:5,6]pyrido[4,3-d]pyrimidin-1-yl)piperidine-1-carboxylate] | 10 to 100 | > 1000 | 10 to 100
COC(=O)N[C@@H]1CC[C@@H](N2C(=O)NCc3cnc4[nH]c(-c5cnn(C)c5)c(-c5ccc6c(cnn6C(C)C)c5)c4c32)C1 [Example 30, Methyl ((1R,3R)-3-(9-(1-isopropyl-1H-indazol-5-yl)-8-(1-methyl-1H-pyrazol-4-yl)-2-oxo-2,3,4,7-tetrahydro-1H-pyrrolo[3′,2′:5,6]pyrido[4,3-d]pyrimidin-1-yl)cyclopentyl) carbamate] | ≤ 10 | > 1000 | ≤ 10
COC(=O)N[C@H]1C[C@H](N2C(=O)NCc3cnc4[nH]c(C5CC5)c(-c5ccc6c(cnn6C(C)C)c5)c4c32)C1 [Example 36, Methyl ((1r,3r)-3-(8-cyclopropyl-9-(1-isopropyl-1H-indazol-5-yl)-2-oxo-2,3,4,7-tetrahydro-1H-pyrrolo[3′,2′:5,6]pyrido [4,3-d]pyrimidin-1-yl)cyclobutyl) carbamate] | 10 to 100 | > 1000 | 10 to 100
CC(C)n1ncc2cc(-c3c(-c4cnn(C)c4)[nH]c4ncc5c(c34)N([C@H]3C[C@H](NS(C)(=O)=O)C3)C(=O)NC5)ccc21 [Example 3, N-((1r,3r)-3-(9-(1-Isopropyl-1H-indazol-5-yl)-8-(1-methyl-1H-pyrazol-4-yl)-2-oxo-2,3,4,7-tetrahydro-1H-pyrrolo[3′,2′:5,6]pyrido[4,3-d]pyrimidin-1-yl)cyclobutyl) methan esulfonamide] | ≤ 10 | 10 to 100 | ≤ 10
CC(C)n1ncc2cc(-c3c(-c4cnn(C)c4)[nH]c4ncc5c(c34)N([C@H]3CC[C@@H]3NS(C)(=O)=O)C(=O)NC5)ccc21 (racemic) [Example 7, N-(trans-2-(9-(1-Isopropyl-1H-indazol-5-yl)-8-(1-methyl-1H-pyrazol-4-yl)-2-oxo-2,3,4,7-tetrahydro-1H-pyrrolo[3′,2′:5,6]pyrido[4,3-d]pyrimidin-1-yl)cyclobutyl) methan esulfonamide] | 10 to 100 | > 1000 | 10 to 100
COC(=O)N[C@@H]1CC[C@@H](N2C(=O)NCc3cnc4[nH]c(-c5cnn(C)c5)c(-c5ccc6c(c5)COC6(C)C)c4c32)C1 [Example 26, Methyl ((1R,3R)-3-(9-(1,1-dimethyl-1,3-dihydroisobenzof uran-5-yl)-8-(1-methyl-1H-pyrazol-4-yl)-2-oxo-2,3,4,7-tetrahydro-1H-pyrrolo[3′,2′:5,6]pyrido[4,3-d]pyrimidin-1-yl)cyclopentyl)ca rbamate] | ≤ 10 | 500 to 1000 | ≤ 10
COC(=O)N[C@H]1C[C@H](N2C(=O)NCc3cnc4[nH]c(C5=CCN(C)CC5)c(-c5ccc6c(cnn6C(C)C)c5)c4c32)C1 [Example 34, Methyl ((1r,3r)-3-(9-(1-isopropyl-1H-indazol-5-yl)-8-(1-methyl-1,2,3,6-tetra hydropyridin-4-yl)-2-oxo-2,3,4,7-tetrahydro-1H-pyrrolo[3′,2′:5,6]pyrido[4,3-d]pyrimidin-1-yl)cyclobutyl) carbamate] | 10 to 100 | > 1000 | 10 to 100
CC(C)n1ncc2cc(-c3c(-c4cnn(C)c4)[nH]c4ncc5c(c34)N([C@H]3C[C@@H](NC(=O)Cc4ccn(C)n4)C3)C(=O)NC5)ccc21 [Example 21, N-((1s,3s)-3-(9-(1-Isopropyl-1H-indazol-5-yl)-8-(1-methyl-1H-pyrazol-4-yl)-2-oxo-2,3,4,7-tetrahydro-1H-pyrrolo[3′,2′:5,6]pyrido[4,3-d]pyrimidin-1-yl)cyclobutyl)-2-(1-methyl-1H-pyrazol-3-yl)acetamide] | 10 to 100 | 500 to 1000 | 10 to 100
COC(=O)N[C@@H]1CC[C@@H](n2c(=O)[nH]c(=O)c3cnc4[nH]c(-c5cnn(C)c5)c(-c5ccc6c(cnn6C(C)C)c5)c4c32)C1 [Example 39, Methyl ((1R,3R)-3-(9-(1-isopropyl-1H-indazol-5-yl)-8-(1-methyl-1H-pyrazol-4-yl)-2,4-dioxo-2,3,4,7-tetrahydro-1H-pyrrolo[3′,2′:5,6]pyrido[4,3-d]pyrimidin-1-yl)cyclopentyl)carbamate] | 10 to 100 | > 1000 | 10 to 100
COCc1ccc(-c2c(-c3cnn(C)c3)[nH]c3ncc4c(c23)N([C@@H]2CC[C@@H](NC(=O)OC)C2)C(=O)NC4)cc1 [Example 32, Methyl ((1R,3R)-3-(9-(4-(methoxymethyl)phenyl)-8-(1-methyl-1H-pyrazol-4-yl)-2-oxo-2,3,4,7-tetrahydro-1H-pyrrolo[3′,2′:5,6]pyrido[4,3-d]pyrimidin-1-yl)cyclopentyl) carbamate] | 10 to 100 | 500 to 1000 | 10 to 100
COC(=O)N[C@@H]1CC[C@@H](n2c(=O)nc(N)c3cnc4[nH]c(-c5cnn(C)c5)c(-c5ccc6c(cnn6C(C)C)c5)c4c32)C1 [Example 41, Methyl ((1R,3R)-3-(4-amino-9-(1-isopropyl-1H-indazol-5-yl)-8-(1-methyl-1H-pyrazol-4-yl)-2-oxo-2,7-dihydro-1H-pyrrolo[3′,2′:5,6]pyrido[4,3-d]pyrimidin-1-yl)cyclopentyl)carbamate] | ≤ 10 | 500 to 1000 | ≤ 10
COC(=O)N[C@@H]1CC[C@@H](N2C(=O)NCc3cnc4[nH]c(-c5cnn(C)c5)c(-c5ccc(OC)cc5)c4c32)C1 [Example 28, Methyl ((1R,3R)-3-(9-(4-methoxyphenyl)-8-(1-methyl-1H-pyrazol-4-yl)-2-oxo-2,3,4,7-tetrahydro-1H-pyrrolo[3′,2′:5,6]pyrido[4,3-d]pyrimidin-1-yl)cyclopentyl)carbamate] | 10 to 100 | > 1000 | 10 to 100
COC(=O)N1CC2(CCC(N3C(=O)NCc4cnc5[nH]c(-c6cnn(C)c6)c(-c6ccc7c(cnn7C(C)C)c6)c5c43)CC2)C1 [Example 18, Methyl 7-(9-(1-isopropyl-1H-indazol-5-yl)-8-(1-methyl-1H-pyrazol-4-yl)-2-oxo-2,3,4,7-tetrahydro-1H-pyrrolo[3′,2′:5,6]pyrido[4,3-d]pyrimidin-1-yl)-2-azaspiro[3.5] nonane-2-carboxylate] | 10 to 100 | 100 to 500 | 10 to 100
CC(=O)N[C@@H]1CC[C@@H](N2C(=O)NCc3cnc4[nH]c(-c5cnn(C)c5)c(-c5ccc6c(cnn6C(C)C)c5)c4c32)C1 [Example 9, N-((1R,3R)-3-(9-(1-Isopropyl-1H-indazol-5-yl)-8-(1-methyl-1H-pyrazol-4-yl)-2-oxo-2,3,4,7-tetrahydro-1H-pyrrolo[3′,2′:5,6]pyrido[4,3-d]pyrimidin-1-yl)cyclopentyl) acetamide] | 10 to 100 | > 1000 | 10 to 100
